Source: ChEMBL document CHEMBL3045367, “Preparation and testing of homocubyl amines as therapeutic NMDA receptor antagonists” (Med Chem Res, 2013)

Assay: Displacement of [3H](+)-MK-801 from N-methyl D-aspartate receptor in Rattus norvegicus (rat) forebrain membranes after 90 min
Design: species or system Membrane

| SMILES | IC50 | Ki |
| --- | --- | --- |
| NC12C3C4C5C3C1C5C42 (stereo not given) [Cubylamine] | 259 µM | 189 µM |
| NC1C2C3C4C1C1C2C3C41 (stereo not given) [Homocubyl-9-amine] | 843 µM | 615 µM |
| CC12CC3CC(C)(C1)CC(N)(C3)C2 [MEMANTINE] | 1.56 µM | 1.14 µM |
| NC1C2C3CC4C5CC(C1C53)C42 (stereo not given) [Trishomocubyl-4-amine] | 89 µM | 65 µM |
| NC1C2C3CC4C2C2C1C3C42 (stereo not given) [bishomocubyl-10-amine] | 152 µM | 111 µM |
